{"source": "paper PMC6562471", "about": "(Cancers, 2019)", "key": {"[1]": {"tested_on": "A549 cells", "assay": "Cell viability (SRB assay), A549", "format": "cell-based, human", "method": "(§4) Cell viability assay was performed using SRB assay as described previously [22]."}, "[2]": {"tested_on": "NCI-H1975 cells", "assay": "Cell viability (SRB assay), NCI-H1975", "format": "cell-based, human", "method": "as §4"}, "[3]": {"assay": "Cell viability (SRB assay), normal MRC-5", "format": "cell-based", "conditions": "human, normal cell line", "method": "as §4"}, "[4]": {"biological_target": "T1, c-Met (Homo sapiens, UniProt P08581)", "T1 construct": "purchased Abnova KA0055", "T1 sequence (P08581 25-1390)": "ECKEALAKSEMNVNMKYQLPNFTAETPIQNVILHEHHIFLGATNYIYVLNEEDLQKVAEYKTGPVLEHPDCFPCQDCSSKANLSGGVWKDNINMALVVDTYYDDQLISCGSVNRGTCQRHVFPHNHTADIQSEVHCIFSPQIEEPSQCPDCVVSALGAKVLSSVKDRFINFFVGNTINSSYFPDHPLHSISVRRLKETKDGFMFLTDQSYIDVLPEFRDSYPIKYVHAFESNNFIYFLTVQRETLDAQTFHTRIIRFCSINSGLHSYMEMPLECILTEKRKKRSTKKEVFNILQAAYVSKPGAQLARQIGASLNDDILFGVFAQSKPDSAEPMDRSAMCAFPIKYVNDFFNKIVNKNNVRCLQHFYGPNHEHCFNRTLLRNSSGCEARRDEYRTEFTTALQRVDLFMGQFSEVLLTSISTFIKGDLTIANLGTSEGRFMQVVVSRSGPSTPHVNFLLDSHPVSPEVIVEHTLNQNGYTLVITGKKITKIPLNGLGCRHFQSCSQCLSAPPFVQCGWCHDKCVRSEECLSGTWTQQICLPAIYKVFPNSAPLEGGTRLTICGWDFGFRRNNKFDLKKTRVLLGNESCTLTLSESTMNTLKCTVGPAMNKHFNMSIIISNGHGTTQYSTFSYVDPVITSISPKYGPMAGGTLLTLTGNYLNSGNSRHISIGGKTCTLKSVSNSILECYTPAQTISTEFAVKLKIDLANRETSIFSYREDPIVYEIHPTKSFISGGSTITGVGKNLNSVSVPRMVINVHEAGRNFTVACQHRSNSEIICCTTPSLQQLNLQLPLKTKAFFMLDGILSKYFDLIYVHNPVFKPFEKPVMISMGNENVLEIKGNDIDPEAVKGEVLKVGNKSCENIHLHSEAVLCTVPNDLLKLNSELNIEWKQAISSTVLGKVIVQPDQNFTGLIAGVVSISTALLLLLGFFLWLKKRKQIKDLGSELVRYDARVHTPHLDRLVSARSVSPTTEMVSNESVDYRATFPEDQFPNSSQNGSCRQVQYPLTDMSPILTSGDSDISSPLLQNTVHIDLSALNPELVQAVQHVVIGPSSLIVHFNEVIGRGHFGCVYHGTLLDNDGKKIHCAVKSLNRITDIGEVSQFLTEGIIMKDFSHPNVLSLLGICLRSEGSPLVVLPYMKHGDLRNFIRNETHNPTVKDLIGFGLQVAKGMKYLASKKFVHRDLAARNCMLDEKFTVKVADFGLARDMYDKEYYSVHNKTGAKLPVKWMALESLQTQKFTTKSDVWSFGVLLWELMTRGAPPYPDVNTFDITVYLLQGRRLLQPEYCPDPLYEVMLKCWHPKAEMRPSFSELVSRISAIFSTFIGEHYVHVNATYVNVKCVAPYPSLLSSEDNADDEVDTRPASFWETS", "assay": "c-Met kinase activity assay (Met Kinase Assay/Inhibitor Screening Kit)", "format": "biochemical", "conditions": "cell-free kinase activity"}, "[5]": {"tested_on": "A549 cells", "assay": "Annexin V-FITC/PI apoptosis assay, A549", "format": "cell-based, human", "conditions": "A549, 0.4 μM, 48 h; control 6.09%", "procedure": "(§1) Annexin FITC/PI assay was performed as described previously. Cell apoptosis was evaluated using Annexin V FITC/PI apoptosis detection kit (BD Biosciences, San Jose, CA, USA) according to the manufacturer’s instruction. […] Wash the cells with cold PBS buffer before staining with 5 μL of Annexin V-FITC and 5 μL of propidium iodide in the 500 μL 1× binding buffer. Finally, the stained cells were incubated for 15 min at room temperature in the dark before analyzing with FACS Calibur flow cytometer, (Becton Dickinson, San Jose, CA, USA)."}, "[6]": {"tested_on": "NCI-H1975 cells", "assay": "Annexin V-FITC/PI apoptosis assay, NCI-H1975", "format": "cell-based, human", "conditions": "NCI-H1975, 0.4 μM, 48 h; control 4.15%", "procedure": "as §1"}, "[7]": {"tested_on": "A549 xenograft", "assay": "A549 nude mouse xenograft model", "format": "in vivo", "procedure": "(§2) All animal experiments were followed the guidelines approved by the Seoul National University Institutional Animal Care and Use Committee (IACUC permission number SNU-170103-2-1). […]. Drug treatment started when their tumor volumes reached to 80–100 mm^3. […]. Body weight and tumor size were measured three times per week. The tumor size was calculated according to the formula V = 0.5 × length × width^2."}, "[8]": {"tested_on": "NCI-H1975 xenograft", "assay": "NCI-H1975 nude mouse xenograft model", "format": "in vivo", "procedure": "as §2"}, "[9]": {"assay": "Pharmacokinetic study in male ICR mice", "format": "in vivo", "conditions": "mouse, plasma, po 10 mg/kg", "procedure": "The male ICR mice (25–30 g, 7–8 weeks of age) were purchased from Koatech Co. (Pyeontak, Kyonggi-do, Korea). Animals were fed with free access to standard chow diet and water. All animal use and care followed the guidelines approved by the Institutional Animal Care and Use Committee of Flow Sciences.INC. (Approval No.: NDDC PK 2018 076 01-DFX117-(4364)). Animals were acclimatized for 1 week at of 23–25 °C temperature, 40–70% relative humidity and 12 h light/12 h dark cycle before study. […] Approximately 80 µL of blood samples were collected into BD Microtainer plasma separator tubes at times 0.25, 0.5, 1.0, 2.0, 4.0, 6.0 and 8.0 h through the saphenous vein over […] post dosing. Blood samples were centrifuged at 15,000 rpm for 5 min and stored in a freezer until analysis. Protein precipitation was conducted on 15 µL of plasma samples using three volumes of acetonitrile containing carbamazepine as an internal analytical standard. After centrifugation, the supernatant was analyzed on a Nexera XR system (Shimadzu, Japan) system coupled with TSQ vantage triple quadruple (Thermo Fisher Scientific, Waltham, MA, USA) system. Chromatographic separation was performed on a Kinetex XB-C18 column (2.1 × 100 mm, 2.6 μm, particle size; Phenomenex, CA, USA) running a linear gradient of solvent A (0.1% formic acid in deionized water) and B (0.1% formic acid in acetonitrile). Detection of the analyte ions was performed in a positive MRM mode, monitoring the following precursor >product ion transitions: m/z 573.1 > 417.8. Analytical data were processed using MassHunter B04.01 (Agilent Korea, Seoul, Korea). Pharmacokinetic parameters were calculated via non-compartmental analysis of the plasma concentration-time profiles using PK Solver."}, "[10]": {"tested_on": "phospho-Met", "assay": "Phospho-receptor tyrosine kinase array, A549", "format": "cell-based, human", "conditions": "A549 cells, 0.2 μM", "procedure": "Phosphorylated RTKs were measured with the Human Phospho-RTK Array Kit (ARY001B) from R&D Systems (Minneapolis, MN, USA) according to the manufacturer’s instructions."}, "[11]": {"tested_on": "A549 cells", "assay": "Colony formation, A549", "format": "cell-based, human", "conditions": "A549, 72 h treatment then 10 days culture", "description": "(§3) The cells were then washed once with PBS and continue to culture with full-growth medium for 10 days, change the culture medium to fresh ones every three days. Cells were stained with 0.1% crystal violet after fixing with 100% methanol."}, "[12]": {"tested_on": "NCI-H1975 cells", "assay": "Colony formation, NCI-H1975", "format": "cell-based, human", "conditions": "NCI-H1975, 72 h treatment then 10 days culture", "description": "as §3"}}, "data": [{"molecule": "COc1ncc(-c2ccc3ncc(C(=O)NCCN4CCOCC4)n3c2)cc1NS(=O)(=O)c1ccc(F)cc1F", "note": "[DFX117, 6-(5-(2,4-difluorophenylsulfonamido)-6-methoxypyridin-3-yl)-N-(2-morpholinoethyl) imidazo[1,2-a]pyridine-3-carboxamide]", "values": [{"measurement": "Growth inhibitory activity compared with HS-173", "setting": "[1]", "value": "superior to that of HS-173"}, {"measurement": "Growth inhibitory activity compared with HS-173", "setting": "[2]", "value": "superior to that of HS-173"}, {"measurement": "IC50", "setting": "[3]", "value": 2.89, "unit": "µM"}, {"measurement": "IC50", "setting": "[4]", "value": 0.0171, "unit": "µM"}, {"measurement": "Population of apoptotic cells (Annexin V positive)", "setting": "[5]", "value": 26.84, "unit": "%"}, {"measurement": "Population of apoptotic cells (Annexin V positive)", "setting": "[6]", "value": 32.75, "unit": "%"}, {"measurement": "Overt toxicity or body weight change", "setting": "[7]; A549 xenograft, 5, 10 or 20 mg/kg orally daily for 23 days", "value": "No overt toxicity or body weight change was observed"}, {"measurement": "Excised tumor weights on the termination day", "setting": "[7]; A549 xenograft, oral daily for 23 days", "value": "significantly inhibited"}, {"measurement": "Overt toxicity or body weight change", "setting": "[8]; 10 or 20 mg/kg orally daily for 23 days", "value": "No overt toxicity or body weight change was observed"}, {"measurement": "Tumor weights", "setting": "[8]; oral daily for 23 days", "value": "significantly inhibited"}, {"measurement": "AUC", "setting": "[9]", "value": 3340, "unit": "ng·h/mL"}, {"measurement": "Cmax", "setting": "[9]", "value": 4500, "unit": "ng/mL"}, {"measurement": "Tmax", "setting": "[9]", "value": 0.3, "unit": "h"}, {"measurement": "half-life", "setting": "[9]", "value": 2.1, "unit": "h"}, {"measurement": "MRT inf", "setting": "[9]; read-out: MRTinf_obs", "value": 2.2, "unit": "h"}, {"measurement": "Phospho-Met level (phospho-RTK array)", "setting": "[10]", "value": "markedly suppressed"}, {"measurement": "Colony formation", "setting": "[11]", "value": "significantly inhibited"}, {"measurement": "Colony formation", "setting": "[12]", "value": "significantly inhibited"}]}]}
